According to PubChem BioAssay (NCI):
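The compound was tested at five concentrations on cells cultured in 96-well plates, with a 48-hour exposure period. The concentration for full growth arrest is given as TGI.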

How the values were obtained:
Assay in all cases: NCI anticancer screen, dose series, 48 h
HCC-2998 colon = test system: HCC-2998 colon
HOP-62 NSCLC = test system: HOP-62 NSCLC
HL-60(TB) leukemia = test system: HL-60(TB) leukemia
A549 NSCLC = test system: A549 NSCLC
SR leukemia = test system: SR leukemia
UO-31 renal = test system: UO-31 renal
BT-549 breast = test system: BT-549 breast
IGROV1 ovarian = test system: IGROV1 ovarian
SNB-75 CNS = test system: SNB-75 CNS
K-562 leukemia = test system: K-562 leukemia

Structure (SMILES) | TGI (HCC-2998 colon) [µM] | TGI (HOP-62 NSCLC) [µM] | TGI (HL-60(TB) leukemia) [µM] | TGI (A549 NSCLC) [µM] | TGI (SR leukemia) [µM] | TGI (UO-31 renal) [µM] | TGI (BT-549 breast) [µM] | TGI (IGROV1 ovarian) [µM] | TGI (SNB-75 CNS) [µM] | TGI (K-562 leukemia) [µM]
CCCOC(=O)NC(C)C(=O)NC(CCC(=O)NC(CCCC(N)C(=O)O)C(=O)NC(C)C(=O)O)C(=O)O (stereo unspecified) | 34.8 | > 100 | 42.1 | > 100 | 32.4 | > 100 | 37.9 | > 100 | – | –
COC(=O)C1OC(O[C@H]2CC[C@]3(C)[C@H]4CC=C5[C@@H]6CC(C)(C)CC[C@]6(C(=O)OC6OCC(O)C(O)C6OC6OC(C)C(OC7OCC(OC8OCC(O)C(O)C8O)C(O)C7O)C(O)C6O)[C@H](O)C[C@@]5(C)[C@]4(C)CC[C@H]3C2(C)C)C(O)C(O)C1O (stereo partly specified) | 3.06 | 13 | > 26.9 | 9.63 | – | 3.56 | 4.4 | 9.34 | 11.3 | –
c1ccc(-c2cnc(-c3ccc(-c4ncc(-c5ccccc5)o4)cc3)o2)cc1 | > 100 | > 100 | > 100 | > 100 | – | > 100 | > 100 | > 100 | > 100 | > 100
O=c1n(Cc2ccccc2)c(=O)n2c(=O)n(Cc3ccccc3)c(=O)n12 | > 100 | – | > 100 | – | > 100 | > 100 | > 100 | – | > 100 | > 100
CCCCC/C(C=O)=C\c1ccccc1 | > 100 | > 100 | > 100 | – | > 100 | > 100 | > 100 | > 100 | > 100 | 69.8
CCOC(=O)C1(C(=O)OCC)CCCN1C(=O)[C@H](CNC(=O)OC(C)(C)C)NC(=O)OCc1ccccc1 | > 100 | > 100 | – | > 100 | > 100 | > 100 | > 100 | > 100 | > 100 | > 100
COc1cc(C=C2C(=O)NC(=S)NC2=O)cc(OC)c1OC | > 100 | > 100 | > 100 | > 100 | – | > 100 | > 100 | > 100 | > 100 | > 100
Cc1ccc(S(=O)(=O)NC(=O)NNc2ccc(F)cc2)cc1 | > 100 | > 100 | > 100 | > 100 | – | > 31.6 | > 31.6 | > 100 | > 75.8 | > 58.2
COP(=O)(OC)C12CCOCCN1c1ccccc1C2=O (stereo unspecified) | > 100 | > 100 | > 100 | > 100 | – | > 100 | > 100 | > 100 | > 100 | –
Cc1ccc(-c2c(C#N)c(-c3ccc([N+](=O)[O-])cc3)c(C#N)c(=O)n2NS(=O)(=O)c2ccccc2)cc1 | > 100 | > 100 | – | > 100 | – | – | 94.9 | > 100 | > 100 | > 100
CC1(C)[C@@H](Cn2cnc3c(Cl)nc(N)nc32)CC[C@@]1(C)CO | 48.7 | > 100 | – | > 100 | – | 15 | – | – | > 100 | > 100
CC1=CC(=O)CC2(C)CCC(C(C)CC(=O)CC(C)C)CC12 (stereo unspecified) | – | – | 43.2 | 34.8 | 41.6 | > 100 | – | 72.5 | > 100 | > 100
